Key:
Format in all cases: in vivo
Kochia (Kochia scoparia) [1] = experiment: Test A preemergence; conditions: Bassia scoparia, pre-emergence, 240 h, 0 to 100 scale where 0 is no effect and 100 is complete control, read-out: Kochia plant response rating; for pest or weed control at 31 g/ha: 31 g ai/ha, Preemergence; for pest or weed control at 125 g/ha: 125 g ai/ha, preemergence, visual injury rating, approximately 10 d
Procedure, shortened: (§1)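 Treatment is preemergence as a directed soil spray after planting, or postemergence at the one- to two-leaf stage, with test chemical in a non-phytotoxic solvent mixture plus surfactant. Plants stay in the greenhouse about 10 d before visual injury scoring on a 0 to 100 scale versus untreated controls.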

[2] = system: barnyardgrass (Echinochloa crus-galli); experiment: Test A preemergence; conditions: Echinochloa crus-galli, pre-emergence, 240 h, 0 to 100 scale where 0 is no effect and 100 is complete control, read-out: Barnyardgrass plant response rating; for pest or weed control at 31 g/ha: 31 g ai/ha, Preemergence; for pest or weed control at 125 g/ha: 125 g ai/ha, preemergence, visual injury rating, approximately 10 d
Procedure, shortened: as §1

[3] = system: giant foxtail (Setaria faberii); experiment: Test A preemergence; conditions: Setaria faberi, pre-emergence, 240 h, 0 to 100 scale where 0 is no effect and 100 is complete control, read-out: Foxtail, Giant plant response rating; for pest or weed control at 31 g/ha: 31 g ai/ha, Preemergence; for pest or weed control at 125 g/ha: 125 g ai/ha, preemergence, visual injury rating, approximately 10 d
Procedure, shortened: as §1

[4] = system: pigweed (Amaranthus retroflexus); experiment: Test A preemergence; conditions: Amaranthus retroflexus, pre-emergence, 240 h, 0 to 100 scale where 0 is no effect and 100 is complete control, read-out: Pigweed plant response rating; for pest or weed control at 31 g/ha: 31 g ai/ha, Preemergence; for pest or weed control at 125 g/ha: 125 g ai/ha, preemergence, visual injury rating, approximately 10 d
[5] = system: ragweed (common ragweed, Ambrosia elatior); experiment: Test A preemergence; conditions: Ambrosia artemisiifolia, pre-emergence, 240 h, 0 to 100 scale where 0 is no effect and 100 is complete control, read-out: Ragweed plant response rating; for pest or weed control at 31 g/ha: 31 g ai/ha, Preemergence; for pest or weed control at 125 g/ha: 125 g ai/ha, preemergence, visual injury rating, approximately 10 d
Procedure, shortened: as §1

[6] = system: ryegrass, Italian (Italian ryegrass, Lolium multiflorum); experiment: Test A preemergence; conditions: Lolium multiflorum, pre-emergence, 240 h, 0 to 100 scale where 0 is no effect and 100 is complete control, read-out: Ryegrass, Italian plant response rating; for pest or weed control at 31 g/ha: 31 g ai/ha, Preemergence; for pest or weed control at 125 g/ha: 125 g ai/ha, preemergence, visual injury rating, approximately 10 d
Procedure, shortened: as §1

[7] = system: Galium (catchweed bedstraw, Galium aparine); experiment: Test A postemergence; conditions: Galium, post-emergence, 240 h, read-out: Galium plant response rating (0 to 100 scale); for pest or weed control at 125 g/ha: 125 g ai/ha, postemergence, visual injury vs untreated controls after approx. 10 d, 0 = no effect, 100 = complete control; for pest or weed control at 31 g/ha: Postemergence, 31 g ai/ha, 0 is no effect, 100 is complete control
Procedure, shortened: as §1

Kochia (Kochia scoparia) [8] = experiment: Test A postemergence; conditions: Bassia scoparia, post-emergence, 240 h, read-out: Kochia plant response rating (0 to 100 scale); for pest or weed control at 125 g/ha: 125 g ai/ha, postemergence, visual injury vs untreated controls after approx. 10 d, 0 = no effect, 100 = complete control; for pest or weed control at 31 g/ha: Postemergence, 31 g ai/ha, 0 is no effect, 100 is complete control
Procedure, shortened: as §1

[9] = system: barnyardgrass (Echinochloa crus-galli); experiment: Test A postemergence; conditions: Echinochloa crus-galli, post-emergence, 240 h, read-out: Barnyardgrass plant response rating (0 to 100 scale); for pest or weed control at 125 g/ha: 125 g ai/ha, postemergence, visual injury vs untreated controls after approx. 10 d, 0 = no effect, 100 = complete control; for pest or weed control at 31 g/ha: Postemergence, 31 g ai/ha, 0 is no effect, 100 is complete control
Procedure, shortened: as §1

[10] = system: blackgrass (Alopecurus myosuroides); experiment: Test A postemergence; conditions: Alopecurus myosuroides, post-emergence, 240 h, read-out: Blackgrass plant response rating (0 to 100 scale); for pest or weed control at 125 g/ha: 125 g ai/ha, postemergence, visual injury vs untreated controls after approx. 10 d, 0 = no effect, 100 = complete control; for pest or weed control at 31 g/ha: Postemergence, 31 g ai/ha, 0 is no effect, 100 is complete control
Procedure, shortened: as §1

corn (Zea mays) = experiment: Test A postemergence; conditions: Zea mays, post-emergence, 240 h, read-out: Corn plant response rating (0 to 100 scale); for plant injury at 125 g/ha: 125 g ai/ha, postemergence, visual injury vs untreated controls after approx. 10 d, 0 = no effect, 100 = complete control; for plant injury at 31 g/ha: Postemergence, 31 g ai/ha, 0 is no effect, 100 is complete control
Procedure, shortened: as §1

[11] = system: giant foxtail (Setaria faberii); experiment: Test A postemergence; conditions: Setaria faberi, post-emergence, 240 h, read-out: Foxtail, Giant plant response rating (0 to 100 scale); for pest or weed control at 125 g/ha: 125 g ai/ha, postemergence, visual injury vs untreated controls after approx. 10 d, 0 = no effect, 100 = complete control; for pest or weed control at 31 g/ha: Postemergence, 31 g ai/ha, 0 is no effect, 100 is complete control
Procedure, shortened: as §1

[12] = system: pigweed (Amaranthus retroflexus); experiment: Test A postemergence; conditions: Amaranthus retroflexus, post-emergence, 240 h, read-out: Pigweed plant response rating (0 to 100 scale); for pest or weed control at 125 g/ha: 125 g ai/ha, postemergence, visual injury vs untreated controls after approx. 10 d, 0 = no effect, 100 = complete control; for pest or weed control at 31 g/ha: Postemergence, 31 g ai/ha, 0 is no effect, 100 is complete control
Procedure, shortened: as §1

[13] = system: ragweed (common ragweed, Ambrosia elatior); experiment: Test A postemergence; conditions: Ambrosia artemisiifolia, post-emergence, 240 h, read-out: Ragweed plant response rating (0 to 100 scale); for pest or weed control at 125 g/ha: 125 g ai/ha, postemergence, visual injury vs untreated controls after approx. 10 d, 0 = no effect, 100 = complete control; for pest or weed control at 31 g/ha: Postemergence, 31 g ai/ha, 0 is no effect, 100 is complete control
Procedure, shortened: as §1

[14] = system: ryegrass, Italian (Italian ryegrass, Lolium multiflorum); experiment: Test A postemergence; conditions: Lolium multiflorum, post-emergence, 240 h, read-out: Ryegrass, Italian plant response rating (0 to 100 scale); for pest or weed control at 125 g/ha: 125 g ai/ha, postemergence, visual injury vs untreated controls after approx. 10 d, 0 = no effect, 100 = complete control; for pest or weed control at 31 g/ha: Postemergence, 31 g ai/ha, 0 is no effect, 100 is complete control
Procedure, shortened: as §1

[15] = system: wheat (Triticum aestivum); experiment: Test A postemergence; conditions: Triticum aestivum, post-emergence, 240 h, read-out: Wheat plant response rating (0 to 100 scale); for plant injury at 125 g/ha: 125 g ai/ha, postemergence, visual injury vs untreated controls after approx. 10 d, 0 = no effect, 100 = complete control; for plant injury at 31 g/ha: Postemergence, 31 g ai/ha, 0 is no effect, 100 is complete control
Procedure, shortened: as §1

[16] = system: barnyardgrass (Echinochloa crus-galli); experiment: Test B flooded paddy test; conditions: Echinochloa crus-galli, 250 g ai/ha, Flood; 0 to 100 scale where 0 is no effect and 100 is complete control; read-out: Barnyardgrass plant response rating
Procedure, shortened: (§2)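 Visual ratings (0 none to 100 complete control) are relative to untreated plants, taken 13–15 d after treatment in a greenhouse. Test material went straight into floodwater standing 3 cm above the soil, kept constant, on plants at the 2-leaf stage.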

[17] = system: ducksalad (Heteranthera limosa); experiment: Test B flooded paddy test; conditions: Heteranthera limosa, 250 g ai/ha, Flood; 0 to 100 scale where 0 is no effect and 100 is complete control; read-out: Ducksalad plant response rating
Procedure, shortened: as §2

rice (Oryra sativa) = experiment: Test B flooded paddy test; conditions: Oryza sativa, 250 g ai/ha, Flood; 0 to 100 scale where 0 is no effect and 100 is complete control; read-out: Rice plant response rating
Procedure, shortened: as §2

[18] = system: sedge, umbrella (small-flower umbrella sedge, Cyperus difformis); experiment: Test B flooded paddy test; conditions: Cyperus difformis, 250 g ai/ha, Flood; 0 to 100 scale where 0 is no effect and 100 is complete control; read-out: Sedge, Umbrella plant response rating
Procedure, shortened: as §2

Compound | pest or weed control at 31 g/ha (Kochia (Kochia scoparia) [1]) [%] | pest or weed control at 125 g/ha (Kochia (Kochia scoparia) [1]) [%] | pest or weed control at 31 g/ha [2] [%] | pest or weed control at 125 g/ha [2] [%] | pest or weed control at 31 g/ha [3] [%] | pest or weed control at 125 g/ha [3] [%] | pest or weed control at 31 g/ha [4] [%] | pest or weed control at 125 g/ha [4] [%] | pest or weed control at 31 g/ha [5] [%] | pest or weed control at 125 g/ha [5] [%] | pest or weed control at 31 g/ha [6] [%] | pest or weed control at 125 g/ha [6] [%] | pest or weed control at 125 g/ha [7] [%] | pest or weed control at 31 g/ha [7] [%] | pest or weed control at 125 g/ha (Kochia (Kochia scoparia) [8]) [%] | pest or weed control at 31 g/ha (Kochia (Kochia scoparia) [8]) [%] | pest or weed control at 125 g/ha [9] [%] | pest or weed control at 31 g/ha [9] [%] | pest or weed control at 125 g/ha [10] [%] | pest or weed control at 31 g/ha [10] [%] | other results
CN1C[C@H](c2ccc(C#N)c(F)c2)[C@@H](C(=O)Nc2cccc(F)c2F)C1=O [Compound 1192] | 0 | 50 | 70 | 100 | 30 | 100 | 0 | 30 | 0 | 0 | 0 | 0 | 50 | 0 | 40 | 0 | 100 | 50 | 0 | 0 | plant injury at 125 g/ha (corn (Zea mays)): 40%; plant injury at 31 g/ha (corn (Zea mays)): 0%; pest or weed control at 125 g/ha [11]: 70%; pest or weed control at 31 g/ha [11]: 40%; pest or weed control at 125 g/ha [12]: 20%; pest or weed control at 31 g/ha [12]: 0%; pest or weed control at 125 g/ha [13]: 0%; pest or weed control at 31 g/ha [13]: 0%; pest or weed control at 125 g/ha [14]: 0%; pest or weed control at 31 g/ha [14]: 0%; plant injury at 125 g/ha [15]: 0%; plant injury at 31 g/ha [15]: 0%; pest or weed control at 250 g/ha [16]: 100%; pest or weed control at 250 g/ha [17]: 95%; pest or weed control at 250 g/ha (rice (Oryra sativa)): 30%; pest or weed control at 250 g/ha [18]: 30%
Cc1cc([C@H]2CN(C)C(=O)[C@@H]2C(=O)Nc2cccc(F)c2F)no1 [Compound 1237] | 0 | 0 | 0 | 70 | 20 | 60 | 0 | 0 | 0 | 0 | 0 | 0 | 0 | 0 | 0 | 0 | 20 | 0 | 0 | 0 | plant injury at 125 g/ha (corn (Zea mays)): 0%; plant injury at 31 g/ha (corn (Zea mays)): 0%; pest or weed control at 125 g/ha [11]: 20%; pest or weed control at 31 g/ha [11]: 0%; pest or weed control at 125 g/ha [12]: 0%; pest or weed control at 31 g/ha [12]: 0%; pest or weed control at 125 g/ha [13]: 0%; pest or weed control at 31 g/ha [13]: 0%; pest or weed control at 125 g/ha [14]: 0%; pest or weed control at 31 g/ha [14]: 0%; plant injury at 125 g/ha [15]: 0%; plant injury at 31 g/ha [15]: 0%; pest or weed control at 250 g/ha [16]: 0%; pest or weed control at 250 g/ha [17]: 65%; pest or weed control at 250 g/ha (rice (Oryra sativa)): 0%; pest or weed control at 250 g/ha [18]: 0%
